A short description of the data set: in vitro. The conditions noted are these: human, hela cells, % viability.
As for `O=C(C[C@@H]1CCNC[C@@H]1Cc1cc(-c2ccccc2)on1)Nc1cccc(O)c1` [CBK289149], the viability at 28.5 h, 10 µM was found to be 102%.

With `O=C(C[C@@H]1CCNC[C@@H]1Cc1cc(-c2ccccc2)on1)N1CCN(c2ccccn2)CC1` [CBK289150], the viability at 28.5 h, 10 µM was found to be 81%.

As for `COc1ccc2c(c1)CCN=C2C[C@H]1CN(C(=O)C2CC2)CC[C@H]1CC(=O)O` [CBK289154], the viability at 28.5 h, 10 µM was 108%.

As for `COc1ccc2c(c1)CCN=C2C[C@H]1CN(C(=O)C(C)(C)C)CC[C@H]1CC(=O)O` [CBK289155], the viability at 28.5 h, 10 µM was found to be 92.5%.

In the case of `O=C(O)C[C@@H]1CCN(C(=O)C2CCCCC2)C[C@@H]1CC1=NCCc2ccccc21` [CBK289158], the viability at 28.5 h, 10 µM was found to be 101%.

`O=C(O)C[C@@H]1CCN(C(=O)NCc2ccccc2)C[C@@H]1CC1=NCCc2ccccc21` [CBK289161]: the viability at 28.5 h, 10 µM was 94.7%.

Regarding `Cc1ccc2c(c1)C(C[C@H]1CN(C(=O)C3CCCC3)CC[C@H]1CC(=O)O)=NCC2` [CBK289163], the viability at 28.5 h, 10 µM is 88.5%.

With `CC(=O)N1CC[C@@H](CC(=O)O)[C@@H](CC2=NCCc3ccc(C(C)(C)C)cc32)C1` [CBK289165], the viability at 28.5 h, 10 µM was found to be 84.4%.

On to `O=C(O)C[C@@H]1CCN(C(=O)c2ccco2)C[C@@H]1CC1=NCCc2cc(F)ccc21` [CBK289166], for which the viability at 28.5 h, 10 µM was found to be 91.1%.

In the case of `Cc1nn(-c2ccccn2)c(C)c1[C@@H]1C=C[C@@H](NS(C)(=O)=O)C1` [CBK289169], the viability at 28.5 h, 10 µM was 86.8%.

With `Cc1nn(-c2ccccn2)c(C)c1[C@@H]1C=C[C@@H](NC(=O)CCC(=O)O)C1` [CBK289170], the viability at 28.5 h, 10 µM is 81.9%.

As to `Cc1nn(CCC#N)c(C)c1[C@@H]1C=C[C@@H](NC(=O)Nc2ccccc2)C1` [CBK289173], the viability at 28.5 h, 10 µM came to 92.9%.

With `Cc1nn(CCC#N)c(C)c1[C@@H]1C=C[C@@H](NC(=O)NCc2ccccc2)C1` [CBK289174], the viability at 28.5 h, 10 µM was found to be 96.8%.

As to `CC(C)(C)CC(=O)N1C[C@@H]2C[C@H](C1)c1ccc(NC(=O)Nc3ccccc3)c(=O)n1C2` [CBK289176], the viability at 28.5 h, 10 µM is 85.8%.

As for `O=C(Nc1ccc2n(c1=O)C[C@@H]1CNC[C@H]2C1)c1ccncc1` [CBK289177], the viability at 28.5 h, 10 µM stood at 107%.

On to `COc1ccc(-c2ccc3n(c2=O)C[C@H]2C[C@@H]3CN(C(=O)c3ccncc3)C2)cc1` [CBK289178], for which the viability at 28.5 h, 10 µM came out at 90.8%.

On to `O=C(O)CCC(=O)N1C[C@@H]2C[C@H](C1)c1ccc(-c3ccc4ccccc4c3)c(=O)n1C2` [CBK289179], for which the viability at 28.5 h, 10 µM is 107%.

`COc1ccc(C(=O)N2C[C@@H]3C[C@H](C2)c2ccc(-c4cccnc4)c(=O)n2C3)cc1` [CBK289182]: the viability at 28.5 h, 10 µM was determined as 86.7%.

For `CC(C)NC(=O)N1C[C@@H]2C[C@H](C1)c1ccc(-c3cccnc3)c(=O)n1C2` [CBK289184], the viability at 28.5 h, 10 µM was 97.5%.

`COc1ccccc1NC(=O)N1C[C@@H]2C[C@H](C1)c1ccc(-c3cncnc3)c(=O)n1C2` [CBK289186]: the viability at 28.5 h, 10 µM was found to be 114%.

For the molecule `N#Cc1ccc(C(=O)N2C[C@@H]3C[C@H](C2)c2ccc(-c4cccc(C#N)c4)c(=O)n2C3)cc1` [CBK289187], the viability at 28.5 h, 10 µM came out at 101%.

As to `O=C(O)CCC(=O)N1C[C@@H]2C[C@H](C1)c1c(-c3ccc(Cl)cc3)ccc(=O)n1C2` [CBK289190], the viability at 28.5 h, 10 µM was 85.9%.

On to `CSCC(=O)N1C[C@@H]2C[C@H](C1)c1c(-c3cncnc3)ccc(=O)n1C2` [CBK289195], for which the viability at 28.5 h, 10 µM was found to be 79.4%.

With `CC(=O)Nc1ccc(-c2ccc(=O)n3c2[C@@H]2C[C@@H](CN(C(=O)C(C)(C)C)C2)C3)cc1` [CBK289199], the viability at 28.5 h, 10 µM turned out to be 112%.

Consider `CC(=O)Nc1ccc(-c2ccc(=O)n3c2[C@@H]2C[C@@H](CN(C4CCOCC4)C2)C3)cc1` [CBK289201], for which the viability at 28.5 h, 10 µM was determined as 98%.

As for `O=C(Nc1ccc2n(c1=O)C[C@H]1C[C@@H]2CN(C(=O)Cc2cccs2)C1)c1ccco1` [CBK289204], the viability at 28.5 h, 10 µM was determined as 102%.

Regarding `O=C(Nc1ccc2n(c1=O)C[C@H]1C[C@@H]2CN(C(=O)Nc2ccc(F)cc2)C1)c1ccco1` [CBK289205], the viability at 28.5 h, 10 µM was found to be 85.4%.

Turning to `CC1=C[C@@H](CNS(C)(=O)=O)[C@H](C(C)C)C[C@H]1CC(=O)Nc1ccccn1` [CBK289208], the viability at 28.5 h, 10 µM came to 89.3%.

With `CC1=C[C@@H](CNC(=O)NC2CCCCC2)[C@H](C(C)C)C[C@H]1CC(=O)O` [CBK289211], the viability at 28.5 h, 10 µM amounted to 80.3%.

Consider `CC1=C[C@@H](CNC(=O)c2ccccn2)[C@H](C(C)C)C[C@H]1CC(=O)O` [CBK289212], for which the viability at 28.5 h, 10 µM worked out at 87.5%.

`CC(=O)N1CCN(C[C@@H]2C=C(C)[C@H](Cc3nnc(C)o3)C[C@H]2C(C)C)CC1` [CBK289219]: the viability at 28.5 h, 10 µM worked out at 114%.

For the molecule `CC1=C[C@@H](CO)[C@H](C(C)C)C[C@H]1Cc1nnc(-c2ccncc2)o1` [CBK289222], the viability at 28.5 h, 10 µM stood at 110%.

`CC1=C[C@@H](CO)[C@H](C(C)C)C[C@H]1Cc1nnc(Cc2c[nH]c3ccccc23)o1` [CBK289223]: the viability at 28.5 h, 10 µM was 89.1%.

`CC1=C[C@@H](CO)[C@H](C(C)C)C[C@H]1Cc1nnc(-c2ccc(N(C)C)cc2)o1` [CBK289224]: the viability at 28.5 h, 10 µM is 65%.

Regarding `CC(=O)c1ccc(NC(=O)N[C@H]2CCN3C(=O)[C@H]4CCCN4C(=O)[C@H]23)cc1` [CBK289228], the viability at 28.5 h, 10 µM came to 108%.

Take `CC(=O)c1ccc(NC(=O)N[C@H]2CCN3C(=O)[C@@H](Cc4ccccc4)NC(=O)[C@H]23)cc1` [CBK289229]: the viability at 28.5 h, 10 µM came to 85.9%.

With `COc1cccc(NC(=O)N[C@H]2CCN3C(=O)[C@@H](Cc4ccccc4)NC(=O)[C@H]23)c1` [CBK289230], the viability at 28.5 h, 10 µM came to 94.5%.

Regarding `O=C(N[C@H]1CCN2C(=O)[C@@H](Cc3ccccc3)NC(=O)[C@H]12)c1cnccn1` [CBK289231], the viability at 28.5 h, 10 µM is 83.6%.

Turning to `O=C(N[C@H]1CCN2C(=O)[C@@H](Cc3c[nH]c4ccccc34)NC(=O)[C@H]12)c1cnccn1` [CBK289232], the viability at 28.5 h, 10 µM came to 89.3%.

On to `CC1(C)[C@H](Cc2cc(CO)on2)C[C@@H]1N(Cc1ccncc1)Cc1ccncc1` [CBK289233], for which the viability at 28.5 h, 10 µM was 98.2%.

In the case of `CS(=O)(=O)c1ccc(CN2C[C@@H]3OCC(=O)N(c4ccccc4)[C@@H]3C2)cc1` [CBK289237], the viability at 28.5 h, 10 µM was determined as 93.2%.

For `CC(=O)Nc1ccc(CN2C[C@@H]3OCC(=O)N(C)[C@@H]3C2)cc1` [CBK289240], the viability at 28.5 h, 10 µM turned out to be 85.5%.

Consider `CC(=O)N[C@H]1C[C@@H](Cc2cc(CN3CCN(c4ccccc4)CC3)on2)C1(C)C` [CBK289241], for which the viability at 28.5 h, 10 µM turned out to be 109%.

For `NC(=O)CN1C(=O)CO[C@H]2CN(Cc3cnc4ccccc4c3)C[C@H]21` [CBK289242], the viability at 28.5 h, 10 µM came out at 106%.

As for `CC1(C)[C@H](Cc2cc(CN3CCOCC3)on2)C[C@@H]1NC(=O)C1CC1` [CBK289246], the viability at 28.5 h, 10 µM was determined as 113%.

For `CC(C)(C)C(=O)N[C@H]1C[C@@H](Cc2cc(CN3CCOCC3)on2)C1(C)C` [CBK289247], the viability at 28.5 h, 10 µM stood at 96.2%.

Regarding `c1ccc(-c2cc(CC3(NCc4c[nH]c5ccccc45)COC3)no2)nc1` [CBK289250], the viability at 28.5 h, 10 µM worked out at 102%.

`COCc1cc(C[C@@H]2C[C@H](NC(=O)C(C)(C)C)C2(C)C)no1` [CBK289251]: the viability at 28.5 h, 10 µM came to 81.3%.

For the molecule `COCc1cc(C[C@@H]2C[C@H](NS(C)(=O)=O)C2(C)C)no1` [CBK289252], the viability at 28.5 h, 10 µM was found to be 92.5%.

With `CC(C)(C)C(=O)N[C@H]1C[C@@H](Cc2cc(CO)on2)C1(C)C` [CBK289260], the viability at 28.5 h, 10 µM is 92.1%.

In the case of `Fc1ccc(-c2c[nH]c([C@@H]3COCCN3Cc3ncc[nH]3)n2)cc1` [CBK289263], the viability at 28.5 h, 10 µM is 95.5%.

As to `CC(C)[C@H]1NC(=O)[C@@H]2[C@@H](NC(=O)NC3CCCCC3)CCN2C1=O` [CBK289264], the viability at 28.5 h, 10 µM turned out to be 113%.

As for `CSCC(=O)N1CC[C@H](NC(=O)NC2CCCCC2)[C@H]1C(=O)N1CCC[C@@H]1C(N)=O` [CBK289265], the viability at 28.5 h, 10 µM was found to be 124%.

Consider `COc1ccc(C(=O)N2CC[C@@H]3NC(=O)[C@H]4C[C@H](NC(=O)C5CCC5)CN4C(=O)[C@H]32)cc1` [CBK289268], for which the viability at 28.5 h, 10 µM is 111%.

With `CC(=O)N1CC[C@@H]2NC(=O)[C@H]3C[C@H](NC(=O)c4ccc(F)c(Cl)c4)CN3C(=O)[C@H]21` [CBK289270], the viability at 28.5 h, 10 µM was 87%.

Regarding `Cn1cccc1C(=O)N[C@H]1C[C@@H]2C(=O)N[C@H]3CCN(C(=O)CC(C)(C)C)[C@@H]3C(=O)N2C1` [CBK289271], the viability at 28.5 h, 10 µM came out at 111%.

As for `Cn1cccc1C(=O)N[C@H]1C[C@@H]2C(=O)N[C@H]3CCN(C(=O)C4CCCC4)[C@@H]3C(=O)N2C1` [CBK289272], the viability at 28.5 h, 10 µM amounted to 97.1%.

With `O=C1Nc2ccc(-c3cccc(C(F)(F)F)c3)cc2C(=O)N2C[C@H](O)C[C@@H]12` [CBK289273], the viability at 28.5 h, 10 µM turned out to be 106%.

In the case of `O=C(N[C@H]1CCN2C(=O)c3cc(-c4ccccc4F)ccc3NC(=O)[C@H]12)c1cnccn1` [CBK289274], the viability at 28.5 h, 10 µM came to 84.7%.

Turning to `COc1cccc(N2C(=O)N[C@@H]3CCN(C(=O)c4cccs4)[C@@H]3C2=O)c1` [CBK289279], the viability at 28.5 h, 10 µM came to 82.3%.

For the molecule `COCC(=O)N1CC[C@@H]2[C@H]1C(=O)N(c1ccc(OC)cc1)C(=O)N2Cc1ccccc1` [CBK289280], the viability at 28.5 h, 10 µM was 92.9%.

Consider `COc1ccc(C(=O)N2CC[C@H]3NC(=O)N(c4ccccc4)C(=O)[C@H]32)cc1` [CBK289281], for which the viability at 28.5 h, 10 µM turned out to be 93.1%.

Take `N#Cc1ccc(C(=O)N2CC[C@H]3NC(=O)N(c4ccccc4)C(=O)[C@H]32)cc1` [CBK289282]: the viability at 28.5 h, 10 µM was determined as 80.5%.

With `CC(C)c1ccc(N2C(=O)N[C@@H]3CCN(C(=O)c4cccs4)[C@@H]3C2=O)cc1` [CBK289286], the viability at 28.5 h, 10 µM was 90.7%.

Take `CC(C)c1ccc(N2C(=O)N[C@@H]3CCN(C(=O)COc4ccccc4)[C@@H]3C2=O)cc1` [CBK289288]: the viability at 28.5 h, 10 µM stood at 98.2%.

With `COc1ccc(S(=O)(=O)N2CC[C@H]3NC(=O)N(c4ccc(C(C)C)cc4)C(=O)[C@H]32)cc1` [CBK289290], the viability at 28.5 h, 10 µM was 107%.

As to `CCC(CC)C(=O)N1CC[C@H]2NC(=O)N(Cc3ccccc3)C(=O)[C@H]21` [CBK289291], the viability at 28.5 h, 10 µM was 88.7%.

The values are drawn from article PMC12040169 (PLOS Biology, 2025).
